In patent US20030211072A1, “Compositions with enhanced oral bioavailability” (priority 2000, published 2003):
“And” between values parts separate entries of the source, which are not always exact repeats. Equal entries are not always repeated. Blank lines part the entries; values can stand above or below the compound they belong to.

What was measured:
[1] = tested on: rat everted gut sacs; conditions: male, Wistar
[2] = tested on: rat everted gut sacs; experiment: Gut sac viability (active glucose transport)
[3] = tested on: rat everted gut sacs; experiment: Everted rat intestinal sacs: tissue uptake and serosal transfer of [14C]doxorubicin, alone or with verapamil/enhancer
[4] = tested on: rat everted gut sacs; experiment: Everted rat intestinal sacs: tissue uptake and serosal transfer of [3H]vinblastine, alone or with verapamil/enhancer
[5] = In vivo biodistribution of [3H]vinblastine (100 ng/kg) after oral gavage, alone or co-administered with ascophyllum, xanthan gum or polidocanol; conditions: for AUC Control of [3H]Vinblastine: 100 ng/kg alone
[6] = [14C]doxorubicin 1 ng/ml alone (Control), 90 min
[7] = [14C]doxorubicin 1 ng/ml, verapamil 0 ng/ml, 60 min
[8] = [14C]doxorubicin 10 ng/ml alone (Control), 90 min
[9] = [14C]doxorubicin 100 ng/ml alone (Control), 90 min
[10] = [14C]doxorubicin (−) verapamil, 0 min
[11] = [14C]doxorubicin (−) verapamil, 30 min
[12] = [14C]doxorubicin (−) verapamil, 60 min
[13] = [14C]doxorubicin (−) verapamil, 90 min
[14] = [14C]doxorubicin (−) verapamil, 120 min
[15] = [14C]doxorubicin alone 1 ng/ml, 60 min
[16] = [14C]doxorubicin alone 3 ng/ml, 60 min
[17] = [14C]doxorubicin alone 10 ng/ml, 60 min
[18] = [14C]doxorubicin alone 100 ng/ml, 60 min
[19] = [14C]doxorubicin alone 300 ng/ml, 60 min
[20] = [3H]vinblastine 1 ng/ml alone (Control), 90 min
[21] = [3H]vinblastine 1 ng/ml, verapamil 0 ng/ml, 60 min
[22] = [3H]vinblastine (−) verapamil, 0 min
[23] = [3H]vinblastine (−) verapamil, 30 min
[24] = [3H]vinblastine (−) verapamil, 60 min
[25] = [3H]vinblastine (−) verapamil, 90 min
[26] = [3H]vinblastine (−) verapamil, 120 min
[27] = [3H]vinblastine alone 0.1 μg/ml, 60 min
[28] = [3H]vinblastine alone 0.3 μg/ml, 60 min
[29] = [3H]vinblastine alone 0.7 μg/ml, 60 min
[30] = [3H]vinblastine alone 1.0 μg/ml, 60 min
[31] = 5 min-24 h, vinblastine 100 ng/kg alone (control)
[32] = [3H]vinblastine 100 ng/kg alone, after 5 hours
[33] = [3H]vinblastine 100 ng/kg alone, after 24 hours

SMILES: COc1ccc(CCN(C)CCCC(C#N)(c2ccc(OC)c(OC)c2)C(C)C)cc1OC (stereo not shown) [Verapamil, verapamil]
effect on tissue uptake and serosal transfer of [14C]doxorubicin [1]: significantly (p<0.05, unpaired student T-test) increased
increase of [14C]doxorubicin uptake and accumulation into the tissue [1]: 2 fold
tissue viability (glucose actively transported) ([2]; verapamil, exception: 40 μg/ml combined with 1 ng/ml [3H]vinblastine): good tissue viability

Serosal transfer [3, 6]: 0.03 ± 0.00 ng/mg of protein
Tissue uptake [3, 6]: 0.02 ± 0.00 ng/mg of protein
Total uptake [3, 6]: 0.05 ± 0.01 ng/mg of protein
Serosal transfer [3, 7]: 0.010 ± 0.000 ng/mg of protein
Tissue uptake [3, 7]: 0.006 ± 0.000 ng/mg of protein
Serosal transfer [3, 8]: 0.05 ± 0.00 ng/mg of protein
Tissue uptake [3, 8]: 0.19 ± 0.03 ng/mg of protein
Total uptake [3, 8]: 0.24 ± 0.03 ng/mg of protein
Serosal transfer [3, 9]: 0.05 ± 0.07 ng/mg of protein
Tissue uptake [3, 9]: 0.75 ± 0.13 ng/mg of protein
Total uptake [3, 9]: 1.25 ± 0.07 ng/mg of protein
Serosal transfer [3, 10]: 0.000 ng/mg of protein
Tissue uptake [3, 10]: 0.001 ng/mg of protein
Total uptake [3, 10]: 0.001 ng/mg of protein
Serosal transfer [3, 11]: 0.008 ng/mg of protein
Tissue uptake [3, 11]: 0.005 ng/mg of protein
Total uptake [3, 11]: 0.013 ng/mg of protein
Serosal transfer [3, 12]: 0.017 ng/mg of protein
Tissue uptake [3, 12]: 0.007 ng/mg of protein
Total uptake [3, 12]: 0.024 ng/mg of protein
Serosal transfer [3, 13]: 0.027 ng/mg of protein
Tissue uptake [3, 13]: 0.025 ng/mg of protein
Total uptake [3, 13]: 0.052 ng/mg of protein
Serosal transfer [3, 14]: 0.024 ng/mg of protein
Tissue uptake [3, 14]: 0.030 ng/mg of protein
Total uptake [3, 14]: 0.054 ng/mg of protein
Serosal transfer [3, 15]: 0.0017 ± 0.002 ng/mg of protein
Tissue uptake [3, 15]: 0.007 ± 0.005 ng/mg of protein
Serosal transfer [3, 16]: 0.029 ± 0.005 ng/mg of protein
Tissue uptake [3, 16]: 0.082 ± 0.015 ng/mg of protein
Serosal transfer [3, 17]: 0.193 ± 0.028 ng/mg of protein
Tissue uptake [3, 17]: 0.393 ± 0.078 ng/mg of protein
Serosal transfer [3, 18]: 1.131 ± 0.500 ng/mg of protein
Tissue uptake [3, 18]: 5.598 ± 1.280 ng/mg of protein
Serosal transfer [3, 19]: 3.375 ± 0.900 ng/mg of protein
Tissue uptake [3, 19]: 25.734 ± 3.668 ng/mg of protein
serosal transfer time course ([3]; [14C]doxorubicin, levels plateaued after 90 min): only linear for 90 min
SMILES: COc1cccc2c1C(=O)c1c(O)c3c(c(O)c1C2=O)C[C@@](O)(C(=O)CO)C[C@@H]3O[C@H]1C[C@H](N)[C@H](O)[C@H](C)O1 [[^14C]Doxorubicin, doxorubicin]

SMILES: CC[C@]1(O)C[C@@H]2CN(CCc3c([nH]c4ccccc34)[C@@](C(=O)OC)(c3cc4c(cc3OC)N(C)[C@H]3[C@@](O)(C(=O)OC)[C@H](OC(C)=O)[C@]5(CC)C=CCN6CC[C@]43[C@@H]65)C2)C1 [[^3H]Vinblastine, vinblastine]
tissue viability (glucose actively transported) ([2]; [3H]vinblastine, exception: concentrations higher than 1 ng/ml): good tissue viability
Serosal transfer [4, 20]: 0.006 ng/mg of protein
Tissue uptake [4, 20]: 0.061 + ng/mg of protein and 0.061 ng/mg of protein
Total uptake [4, 20]: 0.067 ng/mg of protein
Serosal transfer [4, 21]: 0.002 ± 0.000 ng/mg of protein
Tissue uptake [4, 21]: 0.032 ± 0.005 ng/mg of protein
Serosal transfer [4, 22]: 0.000 ng/mg of protein
Tissue uptake [4, 22]: 0.001 ng/mg of protein
Total uptake [4, 22]: 0.001 ng/mg of protein
Serosal transfer [4, 23]: 0.002 ng/mg of protein
Tissue uptake [4, 23]: 0.005 ng/mg of protein
Total uptake [4, 23]: 0.007 ng/mg of protein
Serosal transfer [4, 24]: 0.003 ng/mg of protein
Tissue uptake [4, 24]: 0.032 ng/mg of protein
Total uptake [4, 24]: 0.035 ng/mg of protein
Serosal transfer [4, 25]: 0.006 ng/mg of protein
Tissue uptake [4, 25]: 0.049 ng/mg of protein
Total uptake [4, 25]: 0.055 ng/mg of protein
Serosal transfer [4, 26]: 0.008 ng/mg of protein
Tissue uptake [4, 26]: 0.050 ng/mg of protein
Total uptake [4, 26]: 0.058 ng/mg of protein
Serosal transfer [4, 27]: 0.000 ± 0.000 ng/mg of protein
Tissue uptake [4, 27]: 0.009 ± 0.000 ng/mg of protein
Serosal transfer [4, 28]: 0.001 ± 0.000 ng/mg of protein
Tissue uptake [4, 28]: 0.011 ± 0.001 ng/mg of protein
Serosal transfer [4, 29]: 0.002 ± 0.001 ng/mg of protein
Tissue uptake [4, 29]: 0.017 ± 0.001 ng/mg of protein
Serosal transfer [4, 30]: 0.003 ± 0.001 ng/mg of protein
Tissue uptake [4, 30]: 0.029 ± 0.007 ng/mg of protein
AUC Control of [^3H]Vinblastine, Blood [5, 31]: 53.47 % Dose/organ weight
AUC Control of [^3H]Vinblastine, Cecum [5, 31]: 20.20 % Dose/organ weight
AUC Control of [^3H]Vinblastine, Faeces [5, 31]: 4.58 % Dose/organ weight
AUC Control of [^3H]Vinblastine, Heart [5, 31]: 1.80 % Dose/organ weight
AUC Control of [^3H]Vinblastine, Kidney [5, 31]: 0.98 % Dose/organ weight
AUC Control of [^3H]Vinblastine, Large Intestinal Wash [5, 31]: 6.46 % Dose/organ weight
AUC Control of [^3H]Vinblastine, Large Intestine [5, 31]: 1.08 % Dose/organ weight
AUC Control of [^3H]Vinblastine, Liver [5, 31]: 4.36 % Dose/organ weight
AUC Control of [^3H]Vinblastine, Lung [5, 31]: 1.54 % Dose/organ weight
AUC Control of [^3H]Vinblastine, Small Intestinal Wash [5, 31]: 36.66 % Dose/organ weight
AUC Control of [^3H]Vinblastine, Small Intestine [5, 31]: 1.69 % Dose/organ weight
AUC Control of [^3H]Vinblastine, Spleen [5, 31]: 2.78 % Dose/organ weight
AUC Control of [^3H]Vinblastine, Stomach [5, 31]: 5.34 % Dose/organ weight
AUC Control of [^3H]Vinblastine, Urine [5, 31]: 1.79 % Dose/organ weight
AUC Control of [3H]Vinblastine ([5]; Blood, 5 min-24 h): 53.47 % Dose/organ weight
AUC Control of [3H]Vinblastine ([5]; Cecum, 5 min-24 h): 20.20 % Dose/organ weight
AUC Control of [3H]Vinblastine ([5]; Faeces, 5 min-24 h): 4.58 % Dose/organ weight
AUC Control of [3H]Vinblastine ([5]; Heart, 5 min-24 h): 1.80 % Dose/organ weight
AUC Control of [3H]Vinblastine ([5]; Kidney, 5 min-24 h): 0.98 % Dose/organ weight
AUC Control of [3H]Vinblastine ([5]; Large Intestinal Wash, 5 min-24 h): 6.46 % Dose/organ weight
AUC Control of [3H]Vinblastine ([5]; Large Intestine, 5 min-24 h): 1.08 % Dose/organ weight
AUC Control of [3H]Vinblastine ([5]; Liver, 5 min-24 h): 4.36 % Dose/organ weight
AUC Control of [3H]Vinblastine ([5]; Lung, 5 min-24 h): 1.54 % Dose/organ weight
AUC Control of [3H]Vinblastine ([5]; Small Intestinal Wash, 5 min-24 h): 36.66 % Dose/organ weight
AUC Control of [3H]Vinblastine ([5]; Small Intestine, 5 min-24 h): 1.69 % Dose/organ weight
AUC Control of [3H]Vinblastine ([5]; Spleen, 5 min-24 h): 2.78 % Dose/organ weight
AUC Control of [3H]Vinblastine ([5]; Stomach, 5 min-24 h): 5.34 % Dose/organ weight
AUC Control of [3H]Vinblastine ([5]; Urine, 5 min-24 h): 1.79 % Dose/organ weight
levels in blood over the time course ([5]; [3H]vinblastine 100 ng/kg alone, 5 min-24 h): remained constant
% of the dose in the stomach ([5]; [3H]vinblastine 100 ng/kg alone, after 1 hour): 1.2-1.6%
% found in the cecum [5, 32]: 1.7±0.3%
% found in the faeces [5, 32]: 0.33±0.03%
% in the blood [5, 33]: 3%
% in the heart [5, 33]: 0.7%
